Active and inactive are the calls of the source. The calls are words filed in the database; no cut-off is given here.
Assays:
[1] = biological target: T1, Neuronal acetylcholine receptor; alpha4/beta2 (Homo sapiens, UniProt P17787+P43681); experiment: Displacement of [3H]epibatidine from human alpha4beta2 nAChR expressed in human HEK293T cells after 1.5 hrs by liquid scintillation counting; assay type: cell-based; conditions: HEK-293T
[2] = biological target: Acetylcholine-binding protein (Lymnaea stagnalis, UniProt P58154); experiment: Displacement of [3H]-epibatidine from histidine-tagged Lymnaea stagnalis AChBP expressed in Sf9 cells after 1.5 hrs by liquid scintillation counting
Chain of Acetylcholine-binding protein (P58154 whole entry): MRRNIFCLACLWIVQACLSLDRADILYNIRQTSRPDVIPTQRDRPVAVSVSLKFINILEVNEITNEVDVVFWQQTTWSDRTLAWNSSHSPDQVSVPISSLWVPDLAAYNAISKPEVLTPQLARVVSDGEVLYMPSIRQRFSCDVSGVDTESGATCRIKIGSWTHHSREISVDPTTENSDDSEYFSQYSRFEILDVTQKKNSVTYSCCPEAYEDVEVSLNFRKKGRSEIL

[3] = biological target: T2, Neuronal acetylcholine receptor subunit alpha-7 (Homo sapiens, UniProt P36544); experiment: Displacement of [3H]-MLA from human alpha7 nAChR expressed in human SH-SY5Y cells after 1.5 hrs by liquid scintillation counting; assay type: cell-based
T2 sequence (P36544 whole entry): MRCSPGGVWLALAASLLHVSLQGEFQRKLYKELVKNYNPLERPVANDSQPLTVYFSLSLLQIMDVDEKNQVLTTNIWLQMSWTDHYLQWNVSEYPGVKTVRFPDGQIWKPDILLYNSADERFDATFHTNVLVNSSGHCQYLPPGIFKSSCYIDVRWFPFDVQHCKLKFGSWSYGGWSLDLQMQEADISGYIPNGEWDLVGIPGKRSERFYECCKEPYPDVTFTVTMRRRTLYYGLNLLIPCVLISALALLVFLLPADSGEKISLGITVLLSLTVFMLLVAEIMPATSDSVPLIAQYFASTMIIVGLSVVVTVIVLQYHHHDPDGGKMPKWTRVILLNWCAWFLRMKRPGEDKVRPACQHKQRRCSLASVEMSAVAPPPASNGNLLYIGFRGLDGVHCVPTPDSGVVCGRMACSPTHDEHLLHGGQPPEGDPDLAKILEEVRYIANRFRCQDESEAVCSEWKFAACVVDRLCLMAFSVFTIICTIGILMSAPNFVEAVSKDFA

[4] = biological target: T2, Neuronal acetylcholine receptor subunit alpha-7; experiment: Antagonist activity at human alpha7 nAChR expressed in Xenopus oocytes assessed as increase of acetylcholine-induced effect by electrophysiology assay; assay type: functional, cell-based, Oocyte
[5] = biological target: T1, Neuronal acetylcholine receptor; alpha4/beta2; experiment: Antagonist activity at human alpha4beta2 nAChR expressed in Xenopus oocytes assessed as inhibition of acetylcholine-induced effect at 100 uM by electrophysiology assay; assay type: functional, cell-based; conditions: Oocyte
[6] = biological target: T2, Neuronal acetylcholine receptor subunit alpha-7; experiment: Antagonist activity at human alpha7 nAChR expressed in Xenopus oocytes assessed as acetylcholine-induced effect at 100 uM by electrophysiology assay; assay type: functional, cell-based; conditions: Oocyte
[7] = biological target: T1, Neuronal acetylcholine receptor; alpha4/beta2; experiment: Antagonist activity at human alpha4beta2 nAChR expressed in Xenopus oocytes assessed as increase of acetylcholine-induced effect by electrophysiology assay; assay type: functional, cell-based, Oocyte
[8] = Displacement of [3H]epibatidine from histidine-tagged Aplysia californica AChBP expressed in Sf9 cells after 1.5 hrs by liquid scintillation counting
[9] = biological target: T2, Neuronal acetylcholine receptor subunit alpha-7; experiment: Antagonist activity at human alpha7 nAChR low affinity site expressed in Xenopus oocytes assessed as inhibition of acetylcholine-induced effect at 7 uM by electrophysiology assay; assay type: functional, cell-based; conditions: Oocyte
[10] = biological target: T2, Neuronal acetylcholine receptor subunit alpha-7; experiment: Competitive inhibition of human alpha7 nAChR expressed in Xenopus oocytes by electrophysiology assay; assay type: cell-based; conditions: Oocyte
[11] = biological target: T1, Neuronal acetylcholine receptor; alpha4/beta2; experiment: Competitive inhibition of human alpha4beta2 nAChR expressed in Xenopus oocytes by electrophysiology assay; assay type: cell-based; conditions: Oocyte
[12] = biological target: T1, Neuronal acetylcholine receptor; alpha4/beta2; experiment: Antagonist activity at human alpha4beta2 nAChR high affinity site expressed in Xenopus oocytes assessed as inhibition of acetylcholine-induced effect at 10 uM by electrophysiology assay; assay type: functional, cell-based; conditions: Oocyte
[13] = biological target: T1, Neuronal acetylcholine receptor; alpha4/beta2; experiment: Antagonist activity at human alpha4beta2 nAChR low affinity site expressed in Xenopus oocytes assessed as inhibition of acetylcholine-induced effect at 10 uM by electrophysiology assay; assay type: functional, cell-based; conditions: Oocyte
[14] = biological target: T2, Neuronal acetylcholine receptor subunit alpha-7; experiment: Antagonist activity at human alpha7 nAChR low affinity site expressed in Xenopus oocytes assessed as inhibition of acetylcholine-induced effect at 10 uM by electrophysiology assay; assay type: functional, cell-based; conditions: Oocyte
[15] = biological target: T1, Neuronal acetylcholine receptor; alpha4/beta2; experiment: Antagonist activity at human alpha4beta2 nAChR high affinity site expressed in Xenopus oocytes assessed as inhibition of acetylcholine-induced effect at 55 uM by electrophysiology assay; assay type: functional, cell-based; conditions: Oocyte
[16] = biological target: T1, Neuronal acetylcholine receptor; alpha4/beta2; experiment: Antagonist activity at human alpha4beta2 nAChR low affinity site expressed in Xenopus oocytes assessed as inhibition of acetylcholine-induced effect at 55 uM by electrophysiology assay; assay type: functional, cell-based; conditions: Oocyte
[17] = biological target: T1, Neuronal acetylcholine receptor; alpha4/beta2; experiment: Antagonist activity at human alpha4beta2 nAChR high affinity site expressed in Xenopus oocytes assessed as inhibition of acetylcholine-induced effect at 220 uM by electrophysiology assay; assay type: functional, cell-based; conditions: Oocyte
[18] = biological target: T2, Neuronal acetylcholine receptor subunit alpha-7; experiment: Antagonist activity at human alpha7 nAChR low affinity site expressed in Xenopus oocytes assessed as inhibition of acetylcholine-induced effect at 20 uM by electrophysiology assay; assay type: functional, cell-based; conditions: Oocyte
[19] = biological target: T1, Neuronal acetylcholine receptor; alpha4/beta2; experiment: Antagonist activity at human alpha4beta2 nAChR low affinity site expressed in Xenopus oocytes assessed as inhibition of acetylcholine-induced effect at 220 uM by electrophysiology assay; assay type: functional, cell-based; conditions: Oocyte

T1 sequence (P17787 whole entry): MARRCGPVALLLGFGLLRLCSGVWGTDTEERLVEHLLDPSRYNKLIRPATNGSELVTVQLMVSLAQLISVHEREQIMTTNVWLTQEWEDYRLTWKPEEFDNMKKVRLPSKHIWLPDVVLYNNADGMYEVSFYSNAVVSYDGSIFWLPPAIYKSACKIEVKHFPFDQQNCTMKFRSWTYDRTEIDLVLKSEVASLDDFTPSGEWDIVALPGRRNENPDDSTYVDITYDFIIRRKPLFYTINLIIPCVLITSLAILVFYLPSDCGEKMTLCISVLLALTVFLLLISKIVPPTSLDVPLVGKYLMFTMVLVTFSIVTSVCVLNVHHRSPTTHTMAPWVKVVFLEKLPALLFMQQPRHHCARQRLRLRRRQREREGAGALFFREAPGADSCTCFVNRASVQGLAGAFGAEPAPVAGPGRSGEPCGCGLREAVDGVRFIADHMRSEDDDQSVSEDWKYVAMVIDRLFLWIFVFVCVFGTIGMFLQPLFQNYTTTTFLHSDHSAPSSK
T1 sequence (P43681 whole entry): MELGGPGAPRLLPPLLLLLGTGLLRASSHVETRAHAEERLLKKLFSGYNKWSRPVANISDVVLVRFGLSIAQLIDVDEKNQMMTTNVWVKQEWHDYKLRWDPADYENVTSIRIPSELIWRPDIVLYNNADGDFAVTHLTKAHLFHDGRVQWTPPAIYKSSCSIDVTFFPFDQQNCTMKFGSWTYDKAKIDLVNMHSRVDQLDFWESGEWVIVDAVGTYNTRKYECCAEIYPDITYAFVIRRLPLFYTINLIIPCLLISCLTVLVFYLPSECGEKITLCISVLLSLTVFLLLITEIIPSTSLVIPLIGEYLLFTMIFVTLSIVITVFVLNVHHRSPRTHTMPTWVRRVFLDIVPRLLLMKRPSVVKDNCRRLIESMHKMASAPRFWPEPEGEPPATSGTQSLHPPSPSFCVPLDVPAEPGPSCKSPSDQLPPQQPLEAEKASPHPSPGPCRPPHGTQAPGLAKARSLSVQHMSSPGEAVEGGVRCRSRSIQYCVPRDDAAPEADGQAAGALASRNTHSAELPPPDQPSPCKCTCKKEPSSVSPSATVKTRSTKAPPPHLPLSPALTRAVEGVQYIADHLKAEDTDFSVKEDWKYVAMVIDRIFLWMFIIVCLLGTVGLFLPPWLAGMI

Row | Structure (SMILES) | Activity [1] | Ki [2] [nM] | Ki [3] [µM] | other results
1 | CN1CCC(c2noc3ccccc23)CC1 | inactive | 12600 | ≥ 31.6 | –
2 | c1ccc(Sc2ccccc2CN2CCCC2)cc1 | inactive | 200 | 15.8 | –
3 | CC(C)(C)c1ccc(C(CN)c2ccccc2)cc1 (stereo not drawn) | inactive | ≥ 31600 | ≥ 31.6 | –
4 | c1ccc(C2CCN(CCc3nc4ccccc4[nH]3)CC2)cc1 | inactive | 2510 | ≥ 31.6 | EC50 [4]: 10 µM
5 | O=C1CN(Cc2ccccc2)Cc2ccsc21 | inactive | ≥ 31600 | ≥ 31.6 | inhibition [5]: inactive; inhibition [6]: inactive
6 | CCN(CC)Cc1csc2ccc(Cl)cc12 | inactive | 3980 | ≥ 31.6 | –
7 | CC1CC[N+]2(C)CCc3c([nH]c4ccccc34)C2C1 (stereo not drawn) | inactive | 631 | ≥ 31.6 | –
8 | ClC1(CNc2ccccc2)CCN(Cc2ccccc2)CC1 | inactive | 1580 | ≥ 31.6 | –
9 | C=CC1CN2CCC1CC2c1[nH]c2ccccc2c1CCO (stereo not drawn) | inactive | 398 | ≥ 31.6 | –
10 | c1ccc2c(CN3CCCCC3)csc2c1 | inactive | 1000 | 15.8 | –
11 | CN1CCN(Cc2ccccc2Sc2ccccc2)CC1 | inactive | 1580 | 20 | –
12 | NCC(OCc1ccc(Cl)cc1Cl)c1ccccc1 (stereo not drawn) | inactive | 5010 | ≥ 31.6 | EC50 [7]: 10 µM
13 | OC(COCc1ccc(Cl)cc1)CN1CCc2ccccc2C1 (stereo not drawn) | inactive | 1580 | ≥ 31.6 | –
14 | CC1CC2(CCCCC2)NCc2ccccc21 (stereo not drawn) | inactive | 631 | ≥ 31.6 | –
15 | CC(=O)OCC[N+](C)(C)C [ACETYLCHOLINE] | – | 6310 | – | pKi [8]: 4.3
16 | NCC(OCc1ccc(Cl)cc1)c1ccccc1 (stereo not drawn) | inactive | 6310 | ≥ 31.6 | EC50 [7]: 10 µM; pKi [8]: 4.9; inhibition [9]: Active; inhibition [10]: Active; inhibition [11]: inactive; inhibition [12]: 13%; inhibition [13]: 87%
17 | C[N+]1(CCO)Cc2sc3ccc(Cl)cc3c2C1 (stereo not drawn) | inactive | 1000 | 20 | –
18 | CC(C)(C)C(N)/C=C/c1ccc(Cl)cc1Cl (stereo not drawn) | inactive | 12600 | ≥ 31.6 | –

Row | Structure (SMILES) | Activity [1] | Ki [2] [nM] | Ki [3] [µM] | other results
19 | NCC(c1ccccc1)c1ccc(-c2ccccc2)cc1 (stereo not drawn) | inactive | 12600 | ≥ 31.6 | EC50 [7]: 10 µM
20 | Cc1ccccc1C(OCCN1CCCCC1)c1ccccc1 (stereo not drawn) | inactive | 316 | 20 | –
21 | c1ccc(CN2CCN(CCCSc3cc4ccccc4[nH]3)CC2)cc1 | inactive | 2000 | ≥ 31.6 | –
22 | O=C1COc2ccccc2N1CCCCN1CCc2ccccc2C1 | inactive | 501 | ≥ 31.6 | –
23 | NCc1ccsc1C(O)c1ccccc1 (stereo not drawn) | inactive | 25100 | ≥ 31.6 | –
24 | c1ccc2c(c1)CC1CNC2c2ccccc21 (stereo not drawn) | inactive | 12600 | ≥ 31.6 | EC50 [7]: 10 µM
25 | c1ccc(C2CCN(CCc3cc4ccccc4[nH]3)CC2)cc1 | inactive | 1000 | ≥ 31.6 | pKi [8]: 5.3; inhibition [10]: Active; inhibition [11]: inactive; inhibition [14]: Active; EC50 [4]: 10 µM; inhibition [15]: 25%; inhibition [16]: 75%
26 | c1ccc2c3c([nH]c2c1)C1CCCN1CC3 (stereo not drawn) | inactive | 1260 | ≥ 31.6 | –
27 | c1ccc2c(c1)CCc1ccccc1C2NC12CC3CC(CC(C3)C1)C2 | inactive | ≥ 31600 | ≥ 31.6 | inhibition [5]: inactive; inhibition [6]: inactive
28 | NCC(c1ccc(Cl)cc1)c1ccc(Sc2ccccc2)cc1 (stereo not drawn) | inactive | ≥ 31600 | ≥ 31.6 | inhibition [11]: inactive; EC50 [4]: 10 µM
29 | CC(Cc1ccccc1)NC1CN2CCC1CC2 (stereo not drawn) | inactive | 3160 | ≥ 31.6 | –
30 | CSc1[nH]c2ccccc2c1CN1CCCCC1 | inactive | 1580 | 3.98 | –
31 | CC1CCN(CCc2cc3ccccc3[nH]2)CC1 | inactive | 10000 | ≥ 31.6 | EC50 [4]: 10 µM
32 | Cc1ccc(C(c2ccc(C)cc2)N(C)C)cc1 | inactive | ≥ 31600 | ≥ 31.6 | EC50 [4]: 10 µM
33 | CC1(C)C=C(c2cc(Br)c(C3=CC(C)(C)NC(C)(C)C3)s2)CC(C)(C)N1 | inactive | 398 | ≥ 31.6 | –
34 | Cc1ccc(C(OCC2CCC[N+](C)(C)C2)c2ccccc2)cc1 (stereo not drawn) | inactive | 501 | 10 | –
35 | CC1NCCOC1c1ccc(Cl)cc1 (stereo not drawn) | inactive | 12600 | ≥ 31.6 | inhibition [17]: 19%; inhibition [18]: Active; EC50 [4]: 10 µM; inhibition [19]: 81%
36 | CN1CC2Cc3ccccc3C1c1ccccc12 (stereo not drawn) | inactive | 794 | ≥ 31.6 | EC50 [7]: 10 µM
